# Laboratory results taken from ChEMBL document CHEMBL1130619, “Quaternary substituted PDE4 inhibitors I: the synthesis and in vitro evaluation of a novel series of oxindoles” (Bioorg Med Chem Lett, 1998).
# Columns and labels:
# Phosphodiesterase 4 [1] = biological target: T1, Phosphodiesterase 4 (Homo sapiens, UniProt P27815+Q08499+Q07343+Q08493); test: Displacement of [3H]rolipram binding to guinea pig brain membrane; assay type: tissue-based, Cavia porcellus; conditions: target entry is the homologue from another species
# Phosphodiesterase 4 [2] = biological target: T1, Phosphodiesterase 4; test: Inhibition of guinea pig macrophage Phosphodiesterase 4; assay type: protein assay, Cavia porcellus; conditions: target entry is the homologue from another species
compound,measurement,setting,value
COc1ccc(C2(Cc3cc[n+]([O-])cc3)C(=O)Nc3ccccc32)cc1OC1CCCC1 (centres undefined),Ki,Phosphodiesterase 4 [1],> 3700 nM
same,IC50,Phosphodiesterase 4 [2],1200 nM
COc1ccc(C2(Cc3ccncc3)C(=O)N(Cc3ccncc3)c3ccccc32)cc1OC1CCCC1 (centres undefined),Ki,Phosphodiesterase 4 [1],> 3700 nM
same,IC50,Phosphodiesterase 4 [2],1000 nM
COc1ccc(C2(Cc3ccncc3)C(=O)N(C(=O)OC(C)(C)C)c3ccccc32)cc1OC1CCCC1 (centres undefined),Ki,Phosphodiesterase 4 [1],2800 nM
same,IC50,Phosphodiesterase 4 [2],700 nM
COc1ccc([C@H](Cc2ccncc2)c2ccccc2)cc1OC1CCCC1 [CDP840],Ki,Phosphodiesterase 4 [1],60 nM
same,IC50,Phosphodiesterase 4 [2],4.5 nM
COc1ccc(C2C(=O)Nc3ccccc32)cc1OC1CCCC1 (centres undefined),Ki,Phosphodiesterase 4 [1],> 3700 nM
same,IC50,Phosphodiesterase 4 [2],6000 nM
COc1ccc(C2(Cc3ccccn3)C(=O)Nc3ccccc32)cc1OC1CCCC1 (centres undefined),Ki,Phosphodiesterase 4 [1],> 3700 nM
same,IC50,Phosphodiesterase 4 [2],700 nM
COc1ccc(C2(Cc3ccncc3)C(=O)N(C(=O)N(C)C)c3ccccc32)cc1OC1CCCC1 (centres undefined),Ki,Phosphodiesterase 4 [1],2400 nM
same,IC50,Phosphodiesterase 4 [2],1700 nM
COc1ccc(C2(Cc3cccnc3)C(=O)Nc3ccccc32)cc1OC1CCCC1 (centres undefined),Ki,Phosphodiesterase 4 [1],2600 nM
same,IC50,Phosphodiesterase 4 [2],400 nM
COc1ccc(C2(Cc3ccccc3)C(=O)Nc3ccccc32)cc1OC1CCCC1 (centres undefined),Ki,Phosphodiesterase 4 [1],> 3700 nM
same,IC50,Phosphodiesterase 4 [2],1000 nM
COc1ccc(C2(Cc3ccncc3)C(=O)N(Cc3ccccc3)c3ccccc32)cc1OC1CCCC1 (centres undefined),Ki,Phosphodiesterase 4 [1],> 3700 nM
same,IC50,Phosphodiesterase 4 [2],2000 nM
COc1ccc(C2(Cc3ccncc3)C(=O)N(S(=O)(=O)c3ccc(C)cc3)c3ccccc32)cc1OC1CCCC1 (centres undefined),Ki,Phosphodiesterase 4 [1],> 3700 nM
same,IC50,Phosphodiesterase 4 [2],2400 nM
COc1ccc(C2(Cc3ccncc3)C(=O)Nc3ccccc32)cc1OC1CCCC1 (centres undefined),Ki,Phosphodiesterase 4 [1],200 nM
same,IC50,Phosphodiesterase 4 [2],600 nM
